pIC50: −log10 of the molar value.

Assay [1] concerns Swedish APP695 transgenic HEK293 cells. Nature of the assay: Aβ1-40 (Sw) bioassay (ELISA of Aβ1-40 in cell supernatant). The format is cell-based. Conditions: for % reduction of Aβ1-40 secretion: Swedish APP695 transgenic HEK293 cells, ELISA; for pIC50: Homo sapiens, HEK293, concentration that reduces Aβ1-40 secretion to 50 %, read-out: IC50 Aβ1-40(sw) bioassay (cell-based). The source says: (§1) The tests performed were • a) Aβ1-40 (Sw) bioassay, which measures the amount of the amyoid peptide Aβ1-40 in the supernatant of Swedish APP695 transgenic HEK293 cells in the presence of the various BACE inhibitors via ELISA (enzyme-linked immunosorbent assay). In the table, the inhibitory concentration that reduces Aβ1-40 secretion to 50 % is indicated (IC50), or the % reduction of Aβ1-40 secretion at the indicated concentration. • b) FRET assay, which measures the activity of recombinant BACE enzyme in the presence of the various BACE inhibitors via a FRET (fluorescence resonance energy transfer)-based readout. In the table, the inhibitory concentration that reduces the activity of BACE to 50 % is indicated (IC50), or the % reduction of the activity of BACE at the indicated concentration. • c) An additional in silico test was performed for the compounds listed in Tables 1 to 3. The compounds were docked with the FFLD approach (Budin et al., Biol. Chem. 382, 1365-1372, 2001) and their binding energy was evaluated with the LIECE method (Huang and Caflisch, J. Med. Chem. 47, 5791-5797, 2004). The affinity evaluated with LIECE is in the low micromolar range for most of these compounds.
For orientation: An ELISA detects its analyte on a solid surface through an enzyme-linked reagent.

The target of assay [2] is recombinant BACE enzyme (Homo sapiens, UniProt P56817). Nature of the assay: BACE FRET assay (in vitro). Format: biochemical. The note with it: concentration that reduces the activity of BACE to 50 %.
Sequence of recombinant BACE enzyme (P56817 46-501, species assumed): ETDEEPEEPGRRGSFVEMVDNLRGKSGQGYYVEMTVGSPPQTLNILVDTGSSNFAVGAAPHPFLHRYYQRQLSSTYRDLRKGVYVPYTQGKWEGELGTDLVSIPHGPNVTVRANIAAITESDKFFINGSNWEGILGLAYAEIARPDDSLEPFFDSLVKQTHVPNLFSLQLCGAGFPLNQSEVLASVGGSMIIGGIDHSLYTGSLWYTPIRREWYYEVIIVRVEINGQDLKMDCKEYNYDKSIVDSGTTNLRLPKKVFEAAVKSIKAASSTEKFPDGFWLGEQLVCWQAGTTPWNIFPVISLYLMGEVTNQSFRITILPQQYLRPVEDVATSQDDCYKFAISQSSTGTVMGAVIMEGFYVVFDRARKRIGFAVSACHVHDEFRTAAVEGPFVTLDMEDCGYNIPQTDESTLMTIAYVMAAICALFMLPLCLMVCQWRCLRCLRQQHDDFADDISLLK
From the text: as §1

For the compound `Oc1c(Cl)cc(Cl)cc1/C=N/Nc1nc(Nc2ccccc2)nc(Nc2ccccc2)n1` [Compound 201C08], the “% reduction of Aβ1-40 secretion” value in assay [1] (at 5 µM) is given as 25% (5 µM). Further, the pIC50 in assay [2] was 4.95.
In the case of `Oc1c(I)cc(I)cc1/C=N/Nc1nc(Nc2ccccc2)nc(Nc2ccccc2)n1` [Compound 201G06], in assay [1] (at 5 µM), the “% reduction of Aβ1-40 secretion” value is listed as “No (5 µM)”. In addition, the negative logarithm of the IC50 (pIC50) in assay [2] was 4.59.
For `Oc1c(Cl)cc(Br)cc1/C=N/Nc1nc(Nc2ccccc2)nc(Nc2ccccc2)n1` [Compound 201G11] the same measures were 26% (5 µM) and 4.92.
For `Oc1c(Br)cc(/C=N/Nc2nc(Nc3ccccc3)nc(Nc3ccccc3)n2)cc1Br` [Compound 202E09] the same measures were 25% (5 µM) and 4.27.
`Cc1ccc(C)c(Nc2nc(N/N=C/c3cc(Br)c(O)c(Br)c3O)nc(N3CCOCC3)n2)c1` [Compound 205A04]: the “% reduction of Aβ1-40 secretion” value in assay [1] (at 5 µM) was “No (5 µM)”. Moreover, the negative-log IC50 (pIC50) in assay [2] was 4.09.
On to `Cc1ccc(Nc2nc(N/N=C/c3cc(Br)cc(Br)c3O)nc(N3CCOCC3)n2)cc1` [Compound 205C07], for which the “% reduction of Aβ1-40 secretion” value in assay [1] (at 50 µM) is “No (50 µM)”. For the same compound, the pIC50 in assay [2] was 4.32.
Consider `Cc1ccc(Nc2nc(N/N=C/c3cc(Br)cc(Br)c3O)nc(N3CCOCC3)n2)cc1Cl` [Compound 206E02], for which, in assay [1] (at 50 µM), the “% reduction of Aβ1-40 secretion” value is on record as 27% (50 µM). Also, the pIC50 in assay [2] was 4.69.
For `O=C(O)c1cc(-c2ccc(/C=N/Nc3nc(Nc4ccccc4)nc(N4CCCCC4)n3)o2)ccc1Cl` [Compound 250A05], the pIC50 in assay [1] was 4.70 to 5.00; in assay [2], 3.85.
For `COc1ccc(Nc2nc(NN=Cc3ccc(-c4cccc(C(=O)O)c4)o3)nc(Nc3ccccc3)n2)cc1` [Compound 250B04] the same measures were 4.70 to 5.00 and 4.18.
For `O=C(O)c1cc(-c2ccc(C=NNc3nc(Nc4ccc(F)cc4)nc(N4CCCCC4)n3)o2)ccc1O` [Compound 250B05] the same measures were 4.70 to 5.00 and 4.51.
For `O=C(O)c1cc(-c2ccc(C=NNc3nc(Nc4ccc(F)cc4)nc(N4CCOCC4)n3)o2)ccc1Cl` [Compound 250C04], the “% reduction of Aβ1-40 secretion” value in assay [1] (at 25 µM) is recorded as 0 (25 µM). The pIC50 in assay [2] is 5.15.
As for `Oc1c(Br)cc(Br)cc1/C=N/Nc1nc(Nc2ccccc2)nc(Nc2ccccc2)n1` [Compound 251A07], the pIC50 in assay [2] was 4.97.
For the compound `COc1ccc(Nc2nc(N/N=C/c3cc(Br)cc(Br)c3O)nc(N3CCOCC3)n2)cc1` [Compound 251A09], the negative-log IC50 (pIC50) in assay [2] is 4.46.
For the compound `O=[N+]([O-])c1cc(-c2ccc(/C=N/Nc3nc(N4CCOCC4)nc(N4CCOCC4)n3)o2)ccc1Cl` [Compound 251A10], the negative logarithm of the IC50 (pIC50) in assay [2] is 3.91.
On to `Oc1c(Br)cc(Br)cc1/C=N/Nc1nc(Nc2ccccc2)nc(N2CCCC2)n1` [Compound 251B07], for which the negative logarithm of the IC50 (pIC50) in assay [2] is 4.34.
As to `CNc1nc(N/N=C/c2ccc(-c3ccc([N+](=O)[O-])cc3)o2)nc(Nc2ccccc2)n1` [Compound 251C08], in assay [2], the pIC50 is 4.61.
As for `Cc1ccc(Cl)cc1-c1ccc(/C=N/Nc2nc(N3CCOCC3)nc(N3CCOCC3)n2)o1` [Compound 251C10], the pIC50 in assay [2] is < 4.00.
Regarding `Clc1ccccc1-c1ccc(/C=N/Nc2nc(Nc3ccccc3)nc(Nc3ccccc3)n2)o1` [Compound 251F09], the pIC50 in assay [2] is 3.72.
In the case of `Oc1c(Br)cc(/C=N/Nc2nc(N3CCCCC3)nc(N3CCCCC3)n2)c(O)c1Br` [Compound 251G09], in assay [2], the pIC50 is 3.77.

Usually pIC50 stands for the negative decadic logarithm of the IC50, by convention in mol/L.

Source of the values: patent EP1790345A1, “Triazin beta-secretase inhibitors” (Esbatech AG, priority 2005, dated 2007).
